Laboratory results taken from patent US7091220B2, “Substituted indole Mannich bases” (Gruenenthal GmbH, priority 1999, dated 2006).

System: α2-subtype of the human α-adrenergic receptor
Experiment: SPA test, affinity for the α2-subtype of the human α-adrenergic receptor
Assay type: binding
Details: not given
Method: Wide-ranging testing of the indole Mannich bases according to the invention for their activity was carried out by the conventional high throughput screening methods, such as are described in John P. Devlin, High Throughput Screening, 1997, Marcel Dekker Inc. They are introduced here as a reference and are therefore part of the disclosure.
The action of the indole Mannich bases according to the invention is determined in particular by the affinity for the N-methyl-D-aspartate (NMDA) receptor family, for (α-adrenergic receptors and opioid receptors.
The compounds of the general formula 1 according to the invention investigated are suitable as ligands for the α2-subtype of the human α-adrenergic receptor, which is of importance for pain sensation.
The affinity of the compounds according to the invention for this α2-subtype of the α-adrenergic receptor has been determined with the aid of the SPA test such as is described in John P. Devlin, High Throughput Screening, Marcel Dekker Inc. 1997, pages 307 to 316. This literature is introduced herewith as a reference and is therefore part of the disclosure. The affinities of the compounds according to the invention were in each case determined at a concentration of 10 μM.

Compared with “5-Benzyloxy-3-(phenyl-pyrrolidin-yl-methyl)-1H-indole [Example 50]”, Cc1[nH]c2ccc([N+](=O)[O-])cc2c1C(c1ccccc1)N(C)C (stereo not shown) [Example 15, Dimethyl-[(2-methyl-5-nitro-1H-indol-3-yl)-phenylmethyl]-amine] is lower in “% Inhibition of α2 (humans), 10 μM” value: 51% for the first, 40% for the second.

First: CN(C)C(c1cc(Br)ccc1F)c1c[nH]c2cccc([N+](=O)[O-])c12 (stereo not shown) [Example 51, [(5-Bromo-2-fluoro-phenyl)-(4-nitro-1H-indol-3-yl)-methyl]-dimethyl-amine]
Second: CN(C)C(c1cc(Br)ccc1F)c1cn(C)c2ccccc12 (stereo not shown) [Example 52, [(5-Bromo-2-fluoro-phenyl)-(1-methyl-1H-indol-3-yl)-methyl]-dimethyl-amine]
The “% Inhibition of α2 (humans), 10 μM” value of the first is higher: 43% for the first, 37% for the second.

Target: T1, 5-HT transporter (Rattus norvegicus, UniProt P31652)
T1 construct: these vesicular particles were isolated from the pons and medulla oblongata region of the male rat brain; from tissue; host or cells: rat brain synaptosomes (P2 fraction) from pons and medulla oblongata of male rats
T1 sequence (P31652 whole entry): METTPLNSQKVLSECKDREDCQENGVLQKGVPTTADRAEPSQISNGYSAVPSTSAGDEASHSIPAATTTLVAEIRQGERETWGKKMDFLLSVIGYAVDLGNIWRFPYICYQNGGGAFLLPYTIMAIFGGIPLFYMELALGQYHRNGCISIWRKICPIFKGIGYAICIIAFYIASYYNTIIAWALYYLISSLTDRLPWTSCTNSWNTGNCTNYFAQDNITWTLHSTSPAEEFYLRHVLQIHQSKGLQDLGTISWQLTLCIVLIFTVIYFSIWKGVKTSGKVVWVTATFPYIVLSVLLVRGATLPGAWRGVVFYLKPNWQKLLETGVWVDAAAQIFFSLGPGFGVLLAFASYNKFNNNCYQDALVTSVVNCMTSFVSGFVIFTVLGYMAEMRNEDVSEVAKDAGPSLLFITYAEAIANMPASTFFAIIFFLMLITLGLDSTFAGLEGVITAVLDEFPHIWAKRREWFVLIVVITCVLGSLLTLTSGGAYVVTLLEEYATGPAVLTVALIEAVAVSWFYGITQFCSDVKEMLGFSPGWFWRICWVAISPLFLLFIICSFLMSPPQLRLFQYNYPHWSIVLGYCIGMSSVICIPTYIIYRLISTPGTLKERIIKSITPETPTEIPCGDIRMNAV
Experiment: Inhibition of serotonin re-uptake (5-HT uptake inhibition) in rat brain synaptosomes
Assay type: biochemical
Details: rat brain synaptosomes (P2 fraction, pons and medulla oblongata); means from 2 parallel experiments; concentration not given
Method: The investigations of the inhibition of serotonin re-uptake (5-HT uptake inhibition) were carried out by the methods such as are described in M. Ch. Frink, H. -H. -Hennies, W. Englberger, M. Haurand and B. Wilffert, Arzneim.-Forsch./Drug. Res. 46 (III), 11, 1996, pages 1029–1036. They are introduced herewith as reference and thus form part of the disclosure.
To carry out these investigations, synaptosomes were freshly isolated from rat brain areas. In each case the so-called “P2” fraction was used, which was prepared according to the instructions in E. G. Gray and V. P. Whittaker, J. Anat. 76, pages 79–88, 1962. This literature is introduced herewith as reference and thus forms part of the disclosure. For determination of the 5-HT uptake, these vesicular particles were isolated from the pons and medulla oblongata region of the male rat brain.
The following characteristic data were determined for the 5-HT transporter: • 5-HT uptake: Km=0.084±0.011 μM • Vmax: 38.13±4.52 pmol/min/mg protein.
The results of the investigations are in each case stated as means from 2 parallel experiments.

First: COc1ccccc1C(c1c(C)[nH]c2ccccc12)N(C)C (stereo not shown) [Example 44, [(2-Methoxyphenyl)-(2-methyl-1H-indol-3-yl)-methyl]-dimethylamine]
Second: Cc1ccccc1C(c1c(C)[nH]c2ccccc12)N(C)C (stereo not shown) [Example 88, Dimethyl-[(2-methyl-1H-indol-3-yl)-o-tolyl-methyl]-amine]
The “Inhibition of 5HT uptake in %” value of the first is lower: 48% for the first, 62% for the second.

First: CCn1c(-c2ccccc2)c(C(c2ccc(C(C)(C)C)cc2)N(C)C)c2ccccc21 (stereo not shown) [Example 72, [(4-tert-Butyl-phenyl)-(1-ethyl-2-phenyl-1H-indol-3-yl)-methyl]-dimethyl-amine]
Second: CCn1c(-c2ccccc2)c(C(c2ccc(OC)c(OC)c2)N(C)C)c2ccccc21 (stereo not shown) [Example 80, [(3,4-Dimethoxy-phenyl)-(1-ethyl-2-phenyl-1H-indol-3-yl)-methyl]-dimethyl-amine]
The “Inhibition of 5HT uptake in %” value of the first is higher: 60% for the first, 42% for the second.

Going from Cc1[nH]c2ccccc2c1C(c1ccc(F)cc1Cl)N(C)C (stereo not shown) [Example 73, [(2-Chloro-4-fluoro-phenyl)-(2-methyl-1H-indol-3-yl)-methyl]-dimethyl-amine] to Cc1[nH]c2ccccc2c1C(c1c(F)cccc1Cl)N(C)C (stereo not shown) [Example 74, [(2-Chloro-6-fluoro-phenyl)-(2-methyl-1H-indol-3-yl)-methyl]-dimethyl-amine], the “Inhibition of 5HT uptake in %” value rises from 41% to 72%.

Compared with COc1cccc(C(c2c[nH]c3cccc([N+](=O)[O-])c23)N(C)C)c1OC (stereo not shown) [Example 75, [(2,3-Dimethoxy-phenyl)-(4-nitro-1H-indol-3-yl)-methyl]-dimethylamine], COc1cccc(C(c2c[nH]c3c2CC=C(C(=O)O)C3)N(C)C)c1OC (stereo not shown) [Example 76, 3-[(2,3-Dimethoxy-phenyl)-dimethylamino-methyl]-4,7-dihydro-1H-indole-6-carboxylic Acid] is higher in “Inhibition of 5HT uptake in %” value: 39% for the first, 42% for the second.

First: COc1cccc(C(c2c(C(=O)O)[nH]c3ccc(O)cc23)N(C)C)c1OC (stereo not shown) [Example 77, 3-[(2,3-Dimethoxy-phenyl)-dimethylamino-methyl]-5-hydroxy-1H-indole-2-carboxylic Acid]
Second: COc1ccc(C(c2c(C)[nH]c3ccccc23)N(C)C)cc1OC (stereo not shown) [Example 78, [(3,4-Dimethoxy-phenyl)-(2-methyl-1H-indol-3-yl)-methyl]-dimethyl-amine]
The “Inhibition of 5HT uptake in %” value of the first is lower: 38% for the first, 73% for the second.

Going from COc1ccc(C(c2c(-c3ccc(Cl)cc3)[nH]c3ccccc23)N(C)C)cc1OC (stereo not shown) [Example 79, [[2-(4-Chloro-phenyl)-1H-indol-3-yl]-(3,4-dimethoxy-phenyl)-methyl]-dimethyl-amine] to COc1ccc(C(c2c(-c3ccc(F)cc3)[nH]c3ccccc23)N(C)C)cc1OC (stereo not shown) [Example 83, [(3,4-Dimethoxy-phenyl)-[2-(4-fluoro-phenyl)-1H-indol-3-yl]-methyl]-dimethylamine], the “Inhibition of 5HT uptake in %” value falls from 50% to 39%.

First: CCc1cccc2c(C(c3ccc(OC)c(OC)c3)N(C)C)c[nH]c12 (stereo not shown) [Example 81, [(3,4-Dimethoxy-phenyl)-(7-ethyl-1H-indol-3-yl)-methyl]-dimethyl-amine]
Second: CCc1cccc2c(C(c3ccccc3OC)N(C)C)c[nH]c12 (stereo not shown) [Example 87, [(7-Ethyl-1H-indol-3-yl)-(2-methoxy-phenyl)-methyl]-dimethyl-amine]
The “Inhibition of 5HT uptake in %” value of the first is higher: 68% for the first, 50% for the second.

First: COc1ccc(C(c2cn(C)c3ccccc23)N(C)C)cc1OC (stereo not shown) [Example 82, [(3,4-Dimethoxy-phenyl)-(1-methyl-1H-indol-3-yl)-methyl]-dimethyl-amine]
Second: Cc1ccccc1C(c1cn(C)c2ccccc12)N(C)C (stereo not shown) [Example 90, Dimethyl-[(1-methyl-1H-indol-3-yl)-o-tolyl-methyl]-amine]
The “Inhibition of 5HT uptake in %” value of the first is lower: 42% for the first, 44% for the second.

Going from COc1ccc(C(c2c(-c3ccc(F)c(Cl)c3)[nH]c3ccccc23)N(C)C)cc1OC (stereo not shown) [Example 84, [[2-(3-Chloro-4-fluoro-phenyl)-1H-indol-3-yl]-(3,4-dimethoxy-phenyl)-methyl]-dimethyl-amine] to Cc1ccc(C(c2c(C)[nH]c3ccccc23)N(C)C)cc1 (stereo not shown) [Example 93, Dimethyl-[(2-methyl-1H-indol-3-yl)-p-tolyl-methyl]-amine], the “Inhibition of 5HT uptake in %” value rises from 44% to 78%.

First: CN(C)C(c1ccccc1F)c1c[nH]c2ccc(Cl)cc12 (stereo not shown) [Example 85, [(5-Chloro-1H-indol-3-yl)-(2-fluoro-phenyl)-methyl]-dimethyl-amine]
Second: Cc1ccccc1C(c1c[nH]c2ccc(Cl)cc12)N(C)C (stereo not shown) [Example 91, [(5-Chloro-1H-indol-3-yl)-o-tolyl-methyl]-dimethyl-amine]
The “Inhibition of 5HT uptake in %” value of the first is lower: 44% for the first, 49% for the second.

Cc1cccc2[nH]cc(C(c3ccc(F)cc3)N(C)C)c12 (stereo not shown) [Example 86, [(4-Fluoro-phenyl)-(4-methyl-1H-indol-3-yl)-methyl]-dimethyl-amine] and Cc1cccc2[nH]cc(C(c3cccc(Oc4ccccc4)c3)N(C)C)c12 (stereo not shown) [Example 101, Dimethyl-[(4-methyl-1H-indol-3-yl)-(3-phenoxy-phenyl)-methyl]-amine] are the same in “Inhibition of 5HT uptake in %” value: 41% for the first, 41% for the second.

First: CCc1cccc2c(C(c3ccccc3C)N(C)C)c[nH]c12 (stereo not shown) [Example 89, [(7-Ethyl-1H-indol-3-yl)-o-tolyl-methyl]-dimethyl-amine]
Second: CCc1cccc2c(C(c3cccc(Oc4ccccc4)c3)N(C)C)c[nH]c12 (stereo not shown) [Example 97, [(7-Ethyl-1H-indol-3-yl)-(3-phenoxy-phenyl)-methyl]-dimethyl-amine]
The “Inhibition of 5HT uptake in %” value of the first is lower: 45% for the first, 79% for the second.

Going from Cc1cccc(C(c2c[nH]c3ccc(Cl)cc23)N(C)C)c1 (stereo not shown) [Example 92, [(5-Chloro-1H-indol-3-yl)-m-tolyl-methyl]-dimethyl-amine] to Cc1ccc(C(c2c[nH]c3ccc(Cl)cc23)N(C)C)cc1 (stereo not shown) [Example 94, [(5-Chloro-1H-indol-3-yl)-p-tolyl-methyl]-dimethyl-amine], the “Inhibition of 5HT uptake in %” value rises from 46% to 64%.

First: Cc1[nH]c2ccccc2c1C(c1cccc(Oc2ccccc2)c1)N(C)C (stereo not shown) [Example 95, Dimethyl-[(2-methyl-1H-indol-3-yl)-(3-phenoxy-phenyl)-methyl]-amine]
Second: CN(C)C(c1cccc(Oc2ccccc2)c1)c1c(-c2ccc(F)cc2)[nH]c2ccccc12 (stereo not shown) [Example 99, [[2-(4-Fluoro-phenyl)-1H-indol-3-yl]-(3-phenoxy-phenyl)-methyl]-dimethyl-amine]
The “Inhibition of 5HT uptake in %” value of the first is higher: 70% for the first, 42% for the second.

First: CCn1c(-c2ccccc2)c(C(c2cccc(Oc3ccccc3)c2)N(C)C)c2ccccc21 (stereo not shown) [Example 96, [(1-Ethyl-2-phenyl-1H-indol-3-yl)-(3-phenoxy-phenyl)-methyl]-dimethylamine]
Second: CN(C)C(c1cccc(Oc2ccccc2)c1)c1cn(C)c2ccccc12 (stereo not shown) [Example 98, Dimethyl-[(1-methyl-1H-indol-3-yl)-(3-phenoxy-phenyl)-methyl]-amine]
The “Inhibition of 5HT uptake in %” value of the first is lower: 55% for the first, 66% for the second.

Compared with NC(c1cccc(Oc2ccccc2)c1)c1c(-c2ccc(F)c(Cl)c2)[nH]c2ccccc12 (stereo not shown) [Example 100, [[2-(3-Chloro-4-fluoro-phenyl)-1H-indol-3-yl]-(3-phenoxy-phenyl)-methyl]-amine], Cc1[nH]c2ccccc2c1C(c1ccc(C(F)(F)F)cc1)N(C)C (stereo not shown) [Example 103, Dimethyl-[(2-methyl-1H-indol-3-yl)-(4-trifluoromethyl-phenyl)-methyl]-amine] is higher in “Inhibition of 5HT uptake in %” value: 48% for the first, 74% for the second.

In the case of CN(C)C(c1ccccc1C(F)(F)F)c1c[nH]c2ccc(Cl)cc12 (stereo not shown) [Example 102, [(5-Chloro-1H-indol-3-yl)-(2-trifluoromethyl-phenyl)-methyl]-dimethyl-amine], the “Inhibition of 5HT uptake in %” value is reported as 42%.
